Measured values taken from US10316021B2, “Heteroarylphenoxy benzamide kappa opioid ligands” (Pfizer Inc., priority 2016, dated 2019).
Read-outs that look alike come from different tables or passages of the source.

Columns and labels:
[1] = target: T1, human mu opioid receptor (hMOR) (Homo sapiens, UniProt P35372); assay: Mu radioligand binding assay ([3H]diprenorphine, CHO cell membranes); details: read-out: hMOR binding assay Ki
T1 construct: expressed in transfected cells; host or cells: CHO cells
Method: (§1) Kappa and Mu Radioligand Binding Assay:
Binding assays on membranes from CHO cells expressing human kappa or mu opioid receptors were performed according to standard procedures. Frozen cell paste was homogenized in 50 mM Tris HCl buffer (pH 7.4 @ 4 degrees C.) containing 2.0 mM MgCl2 using a Polytron and spun in a centrifuge at 40,000 g for ten minutes. The final pellet was resuspended in assay buffer (50 mM Tris HCl buffer, pH 7.4, containing 1 mM EDTA, 5 mM MgCl2). Incubations were initiated by the addition of membranes to 96-well plates containing test drugs and [^3H]diprenorphine (0.6 nM final concentration for kappa opioid receptor and 0.5 nM final concentration for mu) in a final volume of 250 μl. Non-specific binding was determined by radioligand binding in the presence of a saturating concentration of naltrexone (10 μM). After a one hour incubation period at room temperature, assay samples were rapidly filtered through PEI coated, GF/B fired Unifilter plates (PerkinElmer) and rinsed with ice-cold 50 mM Tris buffer (pH 7.4). Membrane bound [^3H]diprenorphine levels were determined by liquid scintillation counting of the filterplates in Ecolume scintillation fluid. […] Ki values were calculated according to the Cheng Prusoff equation, Ki=IC50/(1+(L/Kd)), where L is the concentration of the radioligand used in the experiment and the Kd value is the dissociation constant for the radioligand (determined previously by saturation analysis).

[2] = target: T2, human kappa opioid receptor (hKOR) (Homo sapiens, UniProt P41145); assay: Kappa radioligand binding assay ([3H]diprenorphine, CHO cell membranes); details: for Selectivity hMOR/hKOR: selectivity ratio calculated by dividing the hMOR Ki by the hKOR Ki
T2 construct: expressed in transfected cells; host or cells: CHO cells
Method: as §1
Binding assays on membranes from CHO cells expressing human kappa or mu opioid receptors were performed according to standard procedures. Frozen cell paste was homogenized in 50 mM Tris HCl buffer (pH 7.4 @ 4 degrees C.) containing 2.0 mM MgCl2 using a Polytron and spun in a centrifuge at 40,000 g for ten minutes. The final pellet was resuspended in assay buffer (50 mM Tris HCl buffer, pH 7.4, containing 1 mM EDTA, 5 mM MgCl2). Incubations were initiated by the addition of membranes to 96-well plates containing test drugs and [^3H]diprenorphine (0.6 nM final concentration for kappa opioid receptor and 0.5 nM final concentration for mu) in a final volume of 250 μl. Non-specific binding was determined by radioligand binding in the presence of a saturating concentration of naltrexone (10 μM). After a one hour incubation period at room temperature, assay samples were rapidly filtered through PEI coated, GF/B fired Unifilter plates (PerkinElmer) and rinsed with ice-cold 50 mM Tris buffer (pH 7.4). Membrane bound [^3H]diprenorphine levels were determined by liquid scintillation counting of the filterplates in Ecolume scintillation fluid. The IC50 value (concentration at which 50% inhibition of specific binding occurs) was calculated using a logistic 4 parameter fit model of the concentration-response data. Ki values were calculated according to the Cheng Prusoff equation, Ki=IC50/(1+(L/Kd)), where L is the concentration of the radioligand used in the experiment and the Kd value is the dissociation constant for the radioligand (determined previously by saturation analysis).

[3] = Table 19, geometric mean of 2-6 determinations unless otherwise indicated (Example 3: >=7)
[4] = Table 19, geometric mean of 2-6 determinations unless otherwise indicated (Example 3: >=7), read-out: hKOR binding assay Ki
[5] = Table 20, radioligand binding, read-out: hKOR binding assay Ki

T1 sequence (P35372 whole entry): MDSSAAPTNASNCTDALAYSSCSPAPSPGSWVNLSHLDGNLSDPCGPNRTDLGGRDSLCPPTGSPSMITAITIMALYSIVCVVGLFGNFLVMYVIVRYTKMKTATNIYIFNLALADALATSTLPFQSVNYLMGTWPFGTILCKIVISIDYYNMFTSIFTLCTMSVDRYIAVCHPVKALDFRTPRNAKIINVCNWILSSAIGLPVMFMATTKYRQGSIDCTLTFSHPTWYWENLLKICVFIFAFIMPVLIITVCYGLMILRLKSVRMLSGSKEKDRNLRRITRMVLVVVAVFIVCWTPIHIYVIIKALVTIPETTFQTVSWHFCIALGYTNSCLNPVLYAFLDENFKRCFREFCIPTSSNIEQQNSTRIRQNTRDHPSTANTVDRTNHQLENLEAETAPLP
T2 sequence (P41145 whole entry): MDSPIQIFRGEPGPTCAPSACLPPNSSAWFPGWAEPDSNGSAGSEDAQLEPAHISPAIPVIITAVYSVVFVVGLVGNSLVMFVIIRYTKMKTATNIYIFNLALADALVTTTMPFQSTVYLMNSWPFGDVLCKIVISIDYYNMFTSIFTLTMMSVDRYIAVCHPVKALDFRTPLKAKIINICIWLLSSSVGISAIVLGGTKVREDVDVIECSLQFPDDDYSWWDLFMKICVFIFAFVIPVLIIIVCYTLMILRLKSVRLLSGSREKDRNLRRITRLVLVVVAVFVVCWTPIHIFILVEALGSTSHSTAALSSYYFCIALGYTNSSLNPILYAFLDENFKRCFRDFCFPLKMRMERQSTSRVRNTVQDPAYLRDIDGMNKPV

| Ki [1, 3] | Ki [2, 4] | Structure (SMILES) | also measured |
| --- | --- | --- | --- |
| 20.2 nM | 0.871 nM | Cc1nn(C)cc1C1CCCN1Cc1ccc(Oc2ccc(C(N)=O)cc2)c(F)c1 (racemic) [Example 1, (+/−)-4-(4-{[2-(1,3-Dimethyl-1H-pyrazol-4-yl)pyrrolidin-1-yl]methyl}-2-fluorophenoxy) benzamide] |  |
| 196 nM | 5.71 nM | COc1nn(C)cc1C1CCCN1Cc1ccc(Oc2ccc(C(N)=O)cc2F)cc1 (racemic) [Example 7, (+/−)-3-Fluoro-4-(4-{[2-(3-methoxy-1-methyl-1H-pyrazol-4-yl)pyrrolidin-1-yl]methyl}phenoxy)benzamide] |  |
| 159 nM | 9.67 nM | Cc1nn(C)cc1C1CCCN1Cc1ccc(Oc2ccc(C(N)=O)c(O)c2)cc1 (racemic) [Example 16, (+/−)-4-(4-{[2-(1,3-Dimethyl-1H-pyrazol-4-yl)pyrrolidin-1-yl]methyl}phenoxy)-2-hydroxybenzamide] |  |
| 20.9 nM | 8.53 nM | Cc1c(C2CCCN2Cc2ccc(Oc3ccc(C(N)=O)cc3)cc2)cnn1C (racemic) [Example 36] |  |
| 12.5 nM | 13.3 nM | Cc1nn(C)c(C)c1C1CCCN1Cc1ccc(Oc2ccc(C(N)=O)cc2F)cc1 (racemic) [Example 37] | Ki ([1]; Table 20, radioligand binding): 12.5 nM; selectivity for KOR over MOR (hMOR Ki divided by hKOR Ki) [2]: 0.9 fold; Ki [2, 5]: 13.3 nM; Selectivity hMOR/hKOR [2]: 0.9 |
| 73.6 nM | 16.8 nM | Cc1nn(C)cc1C1CCCN1Cc1ccc(Oc2ccc(C(N)=O)cc2F)cc1 (single isomer, unassigned) [Example 5, 4-(4-{[2-(1,3-Dimethyl-1H-pyrazol-4-yl)pyrrolidin-1-yl]methyl}phenoxy)-3-fluorobenzamide] |  |
| 165 nM | 5.86 nM | COc1nn(C)cc1C1COCCN1Cc1ccc(Oc2ccc(C(N)=O)cc2F)cc1 (single isomer, unassigned) [Example 20, 3-fluoro-4-(4-{[3-(3-methoxy-1-methyl-1H-pyrazol-4-yl)morpholin-4-yl]methyl}phenoxy)benzamide] |  |
| 14.6 nM | 0.567 nM | COc1nn(C)cc1C1CCCCN1Cc1ccc(Oc2ccc(C(N)=O)cc2)cc1 (single isomer, unassigned) [Example 21, 4-(4-{[2-(3-methoxy-1-methyl-1H-pyrazol-4-yl)piperidin-1-yl]methyl}phenoxy)benzamide] |  |
| 95.1 nM | 4.52 nM | COc1nn(C)cc1C1COCCN1Cc1ccc(Oc2ccc(C(N)=O)cc2)c(F)c1 (single isomer, unassigned) [Example 22, 4-(2-fluoro-4-{[3-(3-methoxy-1-methyl-1H-pyrazol-4-yl)morpholin-4-yl]methyl}phenoxy)benzamide] |  |
| 73.3 nM | 3.22 nM | COc1nn(C)cc1C1COCCN1Cc1ccc(Oc2ccc(C(N)=O)cc2)cc1 (single isomer, unassigned) [Example 23, 4-(4-{[3-(3-methoxy-1-methyl-1H-pyrazol-4-yl)morpholin-4-yl]methyl}phenoxy)benzamide] |  |
| 252 nM | 2.21 nM | COc1nn(C)cc1C1CC(F)CN1Cc1ccc(Oc2ccc(C(N)=O)cc2)cc1 (single isomer, unassigned) [Example 24, 4-(4-{[4-fluoro-2-(3-methoxy-1-methyl-1H-pyrazol-4-yl)pyrrolidin-1-yl]methyl}phenoxy)benzamide] |  |
| 391 nM | 2.7 nM | Cc1nn(C)cc1C1CC(F)CN1Cc1ccc(Oc2ccc(C(N)=O)cc2)cc1 (single isomer, unassigned) [Example 25, 4-(4-{[2-(1,3-dimethyl-1H-pyrazol-4-yl)-4-fluoropyrrolidin-1-yl]methyl}phenoxy) benzamide] |  |
| > 526 nM | 10.5 nM | Cc1nn(C)cc1C1CC(F)CN1Cc1ccc(Oc2ccc(C(N)=O)cc2)cc1 (single isomer, unassigned) [Example 26, 4-(4-{[2-(1,3-dimethyl-1H-pyrazol-4-yl)-4-fluoropyrrolidin-1-yl]methyl}phenoxy) benzamide] |  |
| 77.9 nM | 4.88 nM | COc1nn(C)cc1C1CC(C)CN1Cc1ccc(Oc2ccc(C(N)=O)cc2F)cc1 (single isomer, unassigned) [Example 28, 3-fluoro-4-(4-{[2-(3-methoxy-1-methyl-1H-pyrazol-4-yl)-4-methylpyrrolidin-1-yl]methyl}phenoxy)benzamide] |  |
| 10.6 nM | 0.498 nM | COc1nn(C)cc1C1CC(C)CN1Cc1ccc(Oc2ccc(C(N)=O)cc2F)cc1 (single isomer, unassigned) [Example 29, 3-fluoro-4-(4-{[2-(3-methoxy-1-methyl-1H-pyrazol-4-yl)-4-methylpyrrolidin-1-yl]methyl}phenoxy)benzamide] |  |
| 9.59 nM | 0.417 nM | COc1nn(C)cc1C1CC(C)CN1Cc1ccc(Oc2ccc(C(N)=O)cc2F)cc1 (single isomer, unassigned) [Example 30, 3-fluoro-4-(4-{[2-(3-methoxy-1-methyl-1H-pyrazol-4-yl)-4-methylpyrrolidin-1-yl]methyl}phenoxy)benzamide] |  |
| 51.7 nM | 4.99 nM | COc1nn(C)cc1C1CC(C)CN1Cc1ccc(Oc2ccc(C(N)=O)cc2F)cc1 (single isomer, unassigned) [Example 31, 3-fluoro-4-(4-{[2-(3-methoxy-1-methyl-1H-pyrazol-4-yl)-4-methylpyrrolidin-1-yl]methyl}phenoxy)benzamide] |  |
| 112 nM | 2.47 nM | COc1nn(C)cc1C1CCCN1Cc1ccc(Oc2ccc(C(N)=O)cc2)c(F)c1 (single isomer, unassigned) [Example 32, 4-(2-fluoro-4-{[2-(3-methoxy-1-methyl-1H-pyrazol-4-yl)pyrrolidin-1-yl]methyl}phenoxy)benzamide] |  |
| 52.2 nM | 1.69 nM | COc1nn(C)cc1C1CCCN1Cc1ccc(Oc2ccc(C(N)=O)c(O)c2)cc1 (single isomer, unassigned) [Example 33, 2-hydroxy-4-(4-{[2-(3-methoxy-1-methyl-1H-pyrazol-4-yl)pyrrolidin-1-yl]methyl}phenoxy)benzamide] |  |
| 18.4 nM | 2.9 nM | Cc1c(C2CCCN2Cc2ccc(Oc3ccc(C(N)=O)cc3F)cc2)cnn1C (single isomer, unassigned) [Example 35, 4-(4-{[2-(1,5-dimethyl-1H-pyrazol-4-yl)pyrrolidin-1-yl]methyl}phenoxy)-3-fluorobenzamide] | Ki ([1]; Table 20, radioligand binding): 18.4 nM; selectivity for KOR over MOR (hMOR Ki divided by hKOR Ki) [2]: 2.5 fold; Ki [2, 5]: 2.9 nM; Selectivity hMOR/hKOR [2]: 6.4 |
| 116 nM | 0.688 nM | Cc1nn(C)nc1C1CCCN1Cc1ccc(Oc2ccc(C(N)=O)cc2)cc1 (single isomer, unassigned) [Example 38, 4-(4-{[2-(2,5-dimethyl-2H-1,2,3-triazol-4-yl)pyrrolidin-1-yl]methyl}phenoxy)benzamide] | Ki ([1]; Table 20, radioligand binding): 116 nM; selectivity for KOR over MOR, in words [2]: more selective than the phenyl examples, Comparators A and B; Ki [2, 5]: 0.7 nM; Selectivity hMOR/hKOR [2]: 168 |
| 40.9 nM | 0.367 nM | Cc1nn(C)nc1C1CCCN1Cc1ccc(Oc2ccc(C(N)=O)cc2)c(F)c1 (single isomer, unassigned) [Example 39, 4-(4-{[2-(2,5-dimethyl-2H-1,2,3-triazol-4-yl)pyrrolidin-1-yl]methyl}-2-fluorophenoxy)benzamide] |  |
| 2730 nM | 85.8 nM | Cc1nsc(C2CCCN2Cc2ccc(Oc3ccc(C(N)=O)cc3)cc2)n1 (single isomer, unassigned) [Example 41, 4-(4-{[2-(3-methyl-1,2,4-thiadiazol-5-yl)pyrrolidin-1-yl]methyl}phenoxy)benzamide] | Ki ([1]; Table 20, radioligand binding): 2730 nM; Ki ([2]; radioligand binding, [3H]diprenorphine, read-out: hKOR Ki): > 100 nM; Selectivity hMOR/hKOR [2]: 32 |
